According to ChEMBL document CHEMBL4418260, “Cyclopentanecarboxamide derivatives, medicaments containing such compounds and their use” (2017):

Key:
Assay type in all cases: cell-based
[1] = biological target: Fatty acid synthase (Mus musculus) (UniProt P19096); test: Inhibition of FAS in mouse N42 cells assessed as [14C]-acetate incorporation at 10 uM preincubated for 60 mins followed by [14C]-acetate addition and measured after 4 hrs by beta scintillation counting method relative to control; set-up: scale not given: the % may be the effect or the level left
Fatty acid synthase = Fatty acid synthase (Homo sapiens, UniProt P49327); test: Inhibition of human HeLa cell derived FAS preincubated for 60 mins in presence of acetyl coenzyme A and NADPH followed by malonyl coenzyme A addition and measured after 10 mins by fluorescence method
[2] = biological target: Fatty acid synthase (Mus musculus) (UniProt P19096); test: Inhibition of FAS in mouse N42 cells assessed as [14C]-acetate incorporation at 100 uM preincubated for 60 mins followed by [14C]-acetate addition and measured after 4 hrs by beta scintillation counting method relative to control; set-up: scale not given: the % may be the effect or the level left

Sequence of Fatty acid synthase (Mus musculus) (P19096 whole entry): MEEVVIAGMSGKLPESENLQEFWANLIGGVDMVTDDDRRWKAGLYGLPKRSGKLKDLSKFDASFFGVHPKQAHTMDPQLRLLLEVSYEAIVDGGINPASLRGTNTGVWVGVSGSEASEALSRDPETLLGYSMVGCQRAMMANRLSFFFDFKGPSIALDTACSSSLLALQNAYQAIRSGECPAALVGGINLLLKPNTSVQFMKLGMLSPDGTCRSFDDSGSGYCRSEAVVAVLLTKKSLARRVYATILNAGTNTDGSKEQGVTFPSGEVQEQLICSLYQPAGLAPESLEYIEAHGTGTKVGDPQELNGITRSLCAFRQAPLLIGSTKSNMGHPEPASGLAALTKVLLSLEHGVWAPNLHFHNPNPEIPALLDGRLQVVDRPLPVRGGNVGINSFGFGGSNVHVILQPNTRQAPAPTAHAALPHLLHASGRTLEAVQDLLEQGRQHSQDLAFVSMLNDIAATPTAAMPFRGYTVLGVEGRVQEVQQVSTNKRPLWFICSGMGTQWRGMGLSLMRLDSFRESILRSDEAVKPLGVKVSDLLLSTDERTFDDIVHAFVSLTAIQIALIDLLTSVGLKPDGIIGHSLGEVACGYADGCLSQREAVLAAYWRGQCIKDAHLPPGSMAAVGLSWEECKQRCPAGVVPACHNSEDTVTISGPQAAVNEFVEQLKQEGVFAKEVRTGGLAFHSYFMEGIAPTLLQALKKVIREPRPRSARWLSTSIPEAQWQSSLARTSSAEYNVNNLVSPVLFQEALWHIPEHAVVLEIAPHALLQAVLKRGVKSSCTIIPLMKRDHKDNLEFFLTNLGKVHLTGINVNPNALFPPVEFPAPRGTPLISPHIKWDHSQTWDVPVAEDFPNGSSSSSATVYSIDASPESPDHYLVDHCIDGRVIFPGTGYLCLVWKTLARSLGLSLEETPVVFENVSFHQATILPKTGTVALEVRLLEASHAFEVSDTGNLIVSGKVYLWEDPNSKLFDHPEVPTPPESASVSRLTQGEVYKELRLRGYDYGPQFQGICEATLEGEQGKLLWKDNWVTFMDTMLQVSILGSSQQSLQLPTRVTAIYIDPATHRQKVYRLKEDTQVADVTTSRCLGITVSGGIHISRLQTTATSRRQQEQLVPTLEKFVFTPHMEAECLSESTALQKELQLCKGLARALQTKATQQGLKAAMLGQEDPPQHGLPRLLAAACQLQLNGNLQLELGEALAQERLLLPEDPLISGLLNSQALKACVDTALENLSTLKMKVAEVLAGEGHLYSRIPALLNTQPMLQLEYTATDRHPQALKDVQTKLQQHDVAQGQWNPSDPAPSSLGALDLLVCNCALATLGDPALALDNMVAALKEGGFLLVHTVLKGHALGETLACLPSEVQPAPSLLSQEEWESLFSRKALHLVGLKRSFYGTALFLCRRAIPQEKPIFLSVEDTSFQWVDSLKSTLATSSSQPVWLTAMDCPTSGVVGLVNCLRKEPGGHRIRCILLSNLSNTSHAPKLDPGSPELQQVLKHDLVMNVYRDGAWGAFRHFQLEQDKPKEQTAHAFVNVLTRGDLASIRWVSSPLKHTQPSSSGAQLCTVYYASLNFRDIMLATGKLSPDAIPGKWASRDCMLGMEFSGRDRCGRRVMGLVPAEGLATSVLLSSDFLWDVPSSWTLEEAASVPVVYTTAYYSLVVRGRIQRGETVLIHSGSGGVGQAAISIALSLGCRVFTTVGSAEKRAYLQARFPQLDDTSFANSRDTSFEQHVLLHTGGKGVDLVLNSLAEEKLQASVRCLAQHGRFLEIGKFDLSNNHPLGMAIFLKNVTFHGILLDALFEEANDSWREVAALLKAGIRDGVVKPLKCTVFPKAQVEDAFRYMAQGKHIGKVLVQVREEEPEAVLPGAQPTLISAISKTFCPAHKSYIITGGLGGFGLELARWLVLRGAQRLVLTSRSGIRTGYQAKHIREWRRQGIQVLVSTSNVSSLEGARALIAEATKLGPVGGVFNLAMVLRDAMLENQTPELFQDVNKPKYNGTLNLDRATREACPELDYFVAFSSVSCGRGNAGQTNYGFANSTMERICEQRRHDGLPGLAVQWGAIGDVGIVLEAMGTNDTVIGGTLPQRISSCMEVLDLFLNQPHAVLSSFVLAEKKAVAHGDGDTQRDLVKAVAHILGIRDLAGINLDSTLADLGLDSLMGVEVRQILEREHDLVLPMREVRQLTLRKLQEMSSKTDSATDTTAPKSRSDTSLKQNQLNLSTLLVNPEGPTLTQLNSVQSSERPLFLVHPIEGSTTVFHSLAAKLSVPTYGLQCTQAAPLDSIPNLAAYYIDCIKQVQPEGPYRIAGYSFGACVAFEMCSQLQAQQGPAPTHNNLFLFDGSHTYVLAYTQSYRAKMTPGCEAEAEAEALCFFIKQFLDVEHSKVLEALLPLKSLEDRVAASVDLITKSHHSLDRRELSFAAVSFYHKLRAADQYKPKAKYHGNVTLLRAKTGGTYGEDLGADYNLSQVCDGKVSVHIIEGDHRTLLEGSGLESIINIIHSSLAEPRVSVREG
Sequence of Fatty acid synthase (P49327 whole entry): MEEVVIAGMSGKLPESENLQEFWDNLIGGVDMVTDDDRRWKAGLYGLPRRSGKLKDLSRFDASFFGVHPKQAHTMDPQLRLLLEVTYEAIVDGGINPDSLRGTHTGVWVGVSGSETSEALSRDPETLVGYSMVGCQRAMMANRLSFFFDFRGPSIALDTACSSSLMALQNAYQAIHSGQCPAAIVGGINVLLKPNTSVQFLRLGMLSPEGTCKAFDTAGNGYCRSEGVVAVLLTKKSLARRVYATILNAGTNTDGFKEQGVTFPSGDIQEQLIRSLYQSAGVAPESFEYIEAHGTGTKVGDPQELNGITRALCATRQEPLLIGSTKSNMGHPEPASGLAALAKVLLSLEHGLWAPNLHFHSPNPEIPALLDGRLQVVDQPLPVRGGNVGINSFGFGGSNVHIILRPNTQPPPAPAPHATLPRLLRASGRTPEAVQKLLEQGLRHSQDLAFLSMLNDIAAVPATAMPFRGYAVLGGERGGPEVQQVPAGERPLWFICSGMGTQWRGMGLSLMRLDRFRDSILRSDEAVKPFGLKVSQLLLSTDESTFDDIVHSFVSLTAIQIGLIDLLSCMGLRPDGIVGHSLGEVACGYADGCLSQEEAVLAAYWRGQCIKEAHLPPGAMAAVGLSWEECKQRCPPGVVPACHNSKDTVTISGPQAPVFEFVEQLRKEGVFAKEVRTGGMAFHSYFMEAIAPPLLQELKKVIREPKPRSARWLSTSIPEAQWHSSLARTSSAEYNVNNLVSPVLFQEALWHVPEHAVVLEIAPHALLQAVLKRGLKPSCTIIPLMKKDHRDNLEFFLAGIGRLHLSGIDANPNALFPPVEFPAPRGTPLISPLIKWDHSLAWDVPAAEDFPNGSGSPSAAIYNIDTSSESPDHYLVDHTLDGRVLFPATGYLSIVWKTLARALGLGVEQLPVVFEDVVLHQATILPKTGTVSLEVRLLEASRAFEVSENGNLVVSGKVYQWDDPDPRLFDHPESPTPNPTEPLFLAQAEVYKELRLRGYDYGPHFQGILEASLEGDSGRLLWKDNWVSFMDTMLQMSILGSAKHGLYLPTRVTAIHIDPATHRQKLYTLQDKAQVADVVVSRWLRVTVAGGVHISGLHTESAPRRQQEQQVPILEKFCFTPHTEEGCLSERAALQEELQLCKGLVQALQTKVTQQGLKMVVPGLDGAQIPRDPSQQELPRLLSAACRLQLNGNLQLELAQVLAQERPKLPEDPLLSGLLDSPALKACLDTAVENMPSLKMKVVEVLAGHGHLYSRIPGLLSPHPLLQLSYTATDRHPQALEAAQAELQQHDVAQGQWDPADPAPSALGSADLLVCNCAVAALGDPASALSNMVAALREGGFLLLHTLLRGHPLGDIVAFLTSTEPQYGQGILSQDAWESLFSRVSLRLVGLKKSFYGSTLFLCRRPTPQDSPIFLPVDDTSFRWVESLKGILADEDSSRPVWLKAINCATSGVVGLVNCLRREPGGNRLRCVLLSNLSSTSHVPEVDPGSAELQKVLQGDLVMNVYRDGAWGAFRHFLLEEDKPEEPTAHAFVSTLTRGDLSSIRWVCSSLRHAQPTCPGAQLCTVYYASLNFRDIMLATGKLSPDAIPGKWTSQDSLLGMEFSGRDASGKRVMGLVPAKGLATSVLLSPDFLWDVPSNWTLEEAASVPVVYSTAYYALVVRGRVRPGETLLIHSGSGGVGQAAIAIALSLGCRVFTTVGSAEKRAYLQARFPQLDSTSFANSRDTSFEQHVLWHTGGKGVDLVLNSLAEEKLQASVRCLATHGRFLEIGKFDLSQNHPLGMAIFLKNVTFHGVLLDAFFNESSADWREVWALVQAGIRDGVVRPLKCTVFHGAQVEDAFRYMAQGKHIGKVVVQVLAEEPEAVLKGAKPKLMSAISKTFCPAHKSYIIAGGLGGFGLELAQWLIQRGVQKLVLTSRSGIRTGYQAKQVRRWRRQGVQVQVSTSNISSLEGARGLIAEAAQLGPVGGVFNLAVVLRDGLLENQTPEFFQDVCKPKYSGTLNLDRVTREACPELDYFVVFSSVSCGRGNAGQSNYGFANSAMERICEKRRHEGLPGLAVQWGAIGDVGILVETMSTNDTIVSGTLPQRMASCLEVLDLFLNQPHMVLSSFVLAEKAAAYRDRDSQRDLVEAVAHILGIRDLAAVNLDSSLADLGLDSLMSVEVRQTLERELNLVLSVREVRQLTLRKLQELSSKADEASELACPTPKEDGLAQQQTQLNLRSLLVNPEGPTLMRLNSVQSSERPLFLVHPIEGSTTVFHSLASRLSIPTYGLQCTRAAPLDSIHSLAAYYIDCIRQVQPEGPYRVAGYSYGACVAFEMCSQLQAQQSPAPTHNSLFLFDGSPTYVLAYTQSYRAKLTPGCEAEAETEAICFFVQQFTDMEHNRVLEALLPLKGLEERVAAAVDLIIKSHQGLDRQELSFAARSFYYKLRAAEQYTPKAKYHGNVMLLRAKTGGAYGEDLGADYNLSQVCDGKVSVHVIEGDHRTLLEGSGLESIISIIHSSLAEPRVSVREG

SMILES	Activity [1]	also measured
CCC(=O)N[C@H]1CC[C@@H](C(=O)N(C)c2ccc(-c3ccccc3)cc2)C1	76.8%	
CN(C)CCCCCC(=O)N[C@H]1CC[C@@H](C(=O)N(C)c2ccc(-c3nc4ccccc4o3)cc2)C1		IC50 (Fatty acid synthase): 500 to 3000 nM
CCCC(=O)N[C@H]1CC[C@@H](C(=O)N(C)c2ccc(-c3nc4ccccc4o3)cc2)C1	81%	
CCC(=O)N[C@H]1CC[C@@H](C(=O)N(C)c2ccc(-c3nc4ccccc4o3)cc2)C1	64.1%	
CC(=O)N[C@H]1CC[C@@H](C(=O)N(C)c2ccc(-c3nc4ccccc4o3)cc2)C1	81.7%	
CCC(=O)N[C@H]1CC[C@@H](C(=O)N(C)c2ccc(-c3nc4ccccc4n3C)cc2)C1	85.7%	
CCC(=O)N[C@H]1CC[C@@H](C(=O)N(C)c2ccc(-c3nc4ccccc4[nH]3)cc2)C1	80.8%	
C/C=C/C/C=C/CCC(=O)[C@H]1O[C@H]1C(N)=O		Activity [2]: 73.3%
